In general, IC50 refers to the concentration that inhibits the measured activity by half. A high value points to weaker potency. Usually ED50 stands for the dose that gives a 50% effect, or the effect in half of the subjects.

Drawing on patent US7557212B2, “Tricyclic derivatives as LTD4 antagonists” (Laboratorios Almirall, S.A., priority 2002, dated 2009), this text covers IC50 and ED50 for 20 molecules.

Like-named read-outs stand apart in the source and are kept apart here.

The target of one assay is T1, CysLT1 (Cavia porcellus, UniProt Q2NNR5).
T1 construct: The assay mixture also contained 200 μg of lung membrane protein/plate well; from tissue; host or cells: guinea-pig lung (primarily parenchyma) membrane preparation
T1 sequence (Q2NNR5 1-340): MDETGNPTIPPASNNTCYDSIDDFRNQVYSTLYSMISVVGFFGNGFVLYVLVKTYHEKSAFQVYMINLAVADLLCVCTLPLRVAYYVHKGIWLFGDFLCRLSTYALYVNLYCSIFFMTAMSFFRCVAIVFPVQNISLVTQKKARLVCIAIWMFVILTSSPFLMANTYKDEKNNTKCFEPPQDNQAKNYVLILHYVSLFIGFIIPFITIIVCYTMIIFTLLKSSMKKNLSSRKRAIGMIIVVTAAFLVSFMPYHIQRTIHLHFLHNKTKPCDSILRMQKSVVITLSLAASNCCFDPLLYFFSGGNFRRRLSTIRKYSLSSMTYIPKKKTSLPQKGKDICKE
The assay can be described thus: CysLT1/LTD4 radioligand binding assay ([3H]LTD4, guinea-pig lung membrane preparation). The note with it: 300 pM [3H]LTD4, guinea-pig lung membranes, 30 minutes at room temperature. The method, then: CysLT1/LTD4 Binding Protocol (Guinea-Pig Lung Membrane Preparation)
Guinea pigs were sacrificed and lung tissues removed. Connective tissue, trachea, large blood vessels and major airways were removed and the remaining tissue, primarily parenchyma, was homogenised in 20 volumes of 10 mM TRIS pH 7.4 containing 0.25M sucrose, 0.25 mM phenylmethylsulfonyl fluoride, 155 μg/ml benzenecarboximide, 5 μg/ml soybean trypsin inhibitor and 100 μg/ml bacitracin (Work Buffer), in a ULTRA-TURRAX T25 at 13500 rpm. The homogenate was centrifuged at 1000×g for 10 minutes at 4° C. The resulting supernatant was filtered through a sterile cloth and further centrifuged for 15 minutes at 40000×g at 4° C. The pellet obtained was resuspended in 10 volumes of Work Buffer, homogenised using a Potter (1100 rpm) and subjected to a final centrifugation step for 30 minutes at 40000×g at 4° C. This membrane pellet was finally resuspended in 10 volumes of 10 mM TRIS and 10 mM PIPES pH 7.4, and homogenised using a Potter (1100 rpm). Protein concentration was determined by the BRADFORD method using the Bio-Rad Protein Assay kit with BSA as standard. Protein aliquots were kept frozen at −80° C.
Radioligand Binding Assay
[^3H]LTD4 (136.9 Ci/mmol) was obtained from NEN.
The assays were performed in a final volume of 250 μl of 10 mM PIPES pH 7.5 containing 10 mM CaCl2, 10 mM MgCl2, 50 mM NaCl, 2 mM L-Cysteine, 2 mM Glycine and 300 pM [^3H]LTD4. The assay mixture also contained 200 μg of lung membrane protein/plate well. Non-specific binding was determined in the presence of zafirlukast 10 μM.
The assays were performed directly on Millipore Multiscreen GF/B plates, presoaked with 200 μl/well of assay buffer at room temperature. Incubations were conducted for 30 minutes at room temperature with continuous shaking. Separation of bound and free [^3H]LTD4 was done by filtration through the plates that were then washed three times with 175 μl/wash of 10 mM TRIS containing 100 mM NaCl at 4° C. The plates were dried and counted in a TRILUX Microbeta Liquid Scintillation Counter of Wallac.

For assay [1], the system named is LTD4-induced airway microvascular leakage. The assay can be described thus: LTD4-induced microvascular permeability in guinea-pigs (Evans blue extravasation in trachea). Format: in vivo, guinea pig. The note with it: oral gavage 4 hours before, LTD4 1 μg/kg i.v., male Dunkin-Hartley guinea pigs. The protocol: LTD4-Induced Microvascular Permeability in Guinea-Pigs
Male Dunkin-Hartey guinea pigs (450-500 g) fasted for 18 hours were administered the test compounds by oral gavage 4 hours before being anesthetized with urethane (15%, i.p. 10 ml/kg). The left jugular vein was canulated under anaesthesia. Five minutes afterwards, Evans blue dye (40 mg/Kg) was injected intravenously. After five more minutes, LTD4 was administered (1 μg/kg, i.v.) to the animals in order to induce airway microvascular leakage. After yet another period of 5 minutes, animals were exsanguinated by cutting the right atria and the vascular bed was rinsed by perfusing 50 ml of saline solution through the left ventricle at a pressure of 150 cmH2O. Then the trachea was excised and incubated in formamide for 20 hours at 55° C. to extract the Evans blue dye from the tissue. Microvascular permeability was determined by light spectrophotometry at 620 nm of the extravasated dye.

The mark [2] stands for this setting: Cavia porcellus, read-out: ED50.

As for `O=C(O)CSC1c2cc(OCc3ccc4cc(F)c(Cl)cc4n3)ccc2OCc2ncccc21` (stereo not drawn) [Example 3, {(7-[(7-chloro,6-fluoro-quinolin-2-yl)methoxy]-5,11-dihydro[1]benzoxepino[3,4-b]pyrindin-5-yl)thio}acetic Acid], the IC50 on CysLT1 turned out to be 0.27 nM. The same measure, in the same setting: under `O=C(O)CCSC1c2cc(CCc3ccc4cc(F)c(F)cc4n3)ccc2OCc2cccnc21` (stereo not drawn) [Example 28, 3-{7-[2-(6,7-Difluoro-quinolin-2-yl)-ethyl]-5,11-dihydro-10-oxa-4-aza-dibenzo[a,d]cyclohepten-5-ylsulfanyl}-propionic Acid] stands 2 nM; under `O=C(O)CCSC1c2cc(OCc3ccc4cc(F)c(Cl)cc4n3)ccc2CCc2ncccc21` (single isomer, unassigned; (+)) [Example 43, (+) 3-[7-(7-Chloro-6-fluoro-quinolin-2-ylmethoxy)-10,11-dihydro-5H-benzo[4,5]cyclohepta[1,2-b]pyridin-5-ylsulfanyl]-propionic Acid], 3.4 nM.

Consider `O=C(O)CSC1c2cc(/C=C/c3ccc4cc(F)c(F)cc4n3)ccc2OCc2ncccc21` (stereo not drawn) [Example 12, {(7-[(E)-2-(6,7-difluoroquinolin-2-yl)vinyl]-5,11-dihydro[1]benzoxepino[3,4-b]pyrindin-5-yl)thio}acetic Acid], for which the IC50 at CysLT1 was 0.35 nM. Consider `O=C(O)CCSC1c2cc(OCc3ccc4cc(F)c(Cl)cc4n3)ccc2OCc2ncccc21` (stereo not drawn) [Example 4, 3-{(7-[(7-chloro,6-fluoro-quinolin-2-yl)methoxy]-5,11-dihydro[1]benzoxepino[3,4-b]pyrindin-5-yl)thio}propanoic Acid], for which the ED50 in assay [1] (setting [2]) worked out at 0.03 mg/kg. The same molecule showed an IC50 on CysLT1 of 0.28 nM. In the same order, the values of `O=C(O)CCSC1c2cc(OCc3ccc4cc(F)c(F)cc4n3)ccc2CCc2ncccc21` (stereo not drawn) [Example 24, 3-[7-(6,7-difluoro-quinolin-2-ylmethoxy)-10,11-dihydro-5H-benzo[4,5]cyclohepta[1,2-b]pyridin-5-ylsulfanyl]-propionic Acid] are 0.01 mg/kg and 0.6 nM. For `O=C(O)CC1(CSC2c3cc(OCc4ccc5cc(F)c(F)cc5n4)ccc3OCc3cccnc32)CC1` (stereo not drawn) [Example 18, 1-{[(9-[(6,7-difluoroquinolin-2-yl)methoxy]-5,11-dihydro[1]benzoxepino[4,3-b]pyrindin-11-yl)thio]methyl}cyclopropyl Acetic Acid], the IC50 at CysLT1 worked out at 0.33 nM. For `O=C(O)CC1(CSC2c3cc(OCc4ccc5cc(F)c(F)cc5n4)ccc3OCc3ncccc32)CC1` (stereo not drawn) [Example 7, 1-{[(7-[(6,7-difluoroquinolin-2-yl)methoxy]-5,11-dihydro[1]benzoxepino[3,4-b]pyrindin-5-yl)thio]methyl}cyclopropyl Acetic Acid], in assay [1] (setting [2]), the ED50 was 0.013 mg/kg. The molecule also returned an IC50 at CysLT1 of 0.14 nM. Consider `O=C(O)CCSC1c2cc(OCc3ccc4cc(F)c(F)cc4n3)ccc2C=Cc2ncccc21` (stereo not drawn) [Example 33, 3-[7-(6,7-Difluoro-quinolin-2-ylmethoxy)-5H-benzo[4,5]cyclohepta[1,2-b]pyridin-5-ylsulfanyl]-propionic Acid], for which the IC50 at CysLT1 is 0.5 nM.

Turning to `CC(C)(CC(=O)O)SC1c2cc(OCc3ccc4cc(F)c(F)cc4n3)ccc2OCc2ncccc21` (stereo not drawn) [Example 9, 3-{(7-[(6,7-difluoroquinolin-2-yl)methoxy]-5,11-dihydro[1]benzoxepino[3,4-b]pyrindin-5-yl)thio}-3methylbutanoic Acid], the ED50 in assay [1] (setting [2]) came out at 0.018 mg/kg. The 50% inhibitory concentration (IC50) on CysLT1 was found to be 0.59 nM. As for `O=C(O)CCSC1c2ccncc2CCc2ccc(OCc3ccc4cc(F)c(F)cc4n3)cc21` (stereo not drawn) [Example 25, 3-[7-(6,7-Difluoro-quinolin-2-ylmethoxy)-10,11-dihydro-5H-benzo[4,5]cyclohepta[1,2-c]pyridin-5-ylsulfanyl]-propionic Acid], on CysLT1, the IC50 stood at 0.67 nM. Turning to `CC(C)(CSC1c2cc(OCc3ccc4cc(F)c(F)cc4n3)ccc2OCc2ncccc21)C(=O)O` (stereo not drawn) [Example 8, 3-{(7-[(6,7-difluoroquinolin-2-yl)methoxy]-5,11-dihydro[1]benzoxepino[3,4-b]pyrindin-5-yl)thio}-2,2-dimethylpropanoic Acid], the IC50 on CysLT1 was 0.5 nM. In the case of `O=C(O)CC1(CSC2c3cc(/C=C/c4ccc5cc(F)c(F)cc5n4)ccc3OCc3ncccc32)CC1` (stereo not drawn) [Example 11, 1-{[(7-[(E)-2-(6,7-difluoroquinolin-2-yl)vinyl]-5,11-dihydro[1]benzoxepino[3,4-b]pyrindin-5-yl)thio]methyl}cyclopropyl Acetic], the ED50 in assay [1] (setting [2]) is 0.0013 mg/kg. The molecule also showed an IC50 at CysLT1 of 0.27 nM. On CysLT1, `O=C(O)CC1(CSC2c3cc(/C=C/c4ccc5cc(F)c(F)cc5n4)ccc3C=Cc3ncccc32)CC1` (stereo not drawn) [Example 40, (1-{7-[2-(6,7-Difluoro-quinolin-2-yl)-vinyl]-5H-benzo[4,5]cyclohepta[1,2-b]pyridin-5-ylsulfanylmethyl}-cyclopropyl) Acetic Acid] displayed an IC50 of 0.5 nM. For the molecule `CC(C)(O)c1ccccc1CC[C@@H](SCC1(CC(=O)O)CC1)c1cccc(/C=C/c2ccc3ccc(Cl)cc3n2)c1` [Compound B, reference compound], the ED50 in assay [1] (setting [2]) worked out at 0.008 mg/kg. On to `O=C(O)CCSC1c2ccccc2COc2ccc(OCc3ccc4cc(F)c(Cl)cc4n3)cc21` (stereo not drawn) [Compound A, reference compound], for which the ED50 in assay [1] amounted to 0.010 mg/kg. Further, the half-inhibitory concentration (IC50) at CysLT1 turned out to be 0.51 nM. As to `O=C(O)CCSC1c2cc(OCc3ccc4cc(F)c(F)cc4n3)ccc2OCc2ncccc21` (stereo not drawn) [Example 1, 3-{(7-[(6,7-difluoroquinolin-2-yl)methoxy]-5,11-dihydro[1]benzoxepino[3,4-b]pyridin-5-yl)thio}propanoic Acid], the ED50 in assay [1] (setting [2]) was 0.009 mg/kg. Besides, on CysLT1, the IC50 came to 0.38 nM.

For the molecule `O=C(O)CCSC1c2cc(OCc3ccc4cc(F)c(Cl)cc4n3)ccc2CCc2ncccc21` (stereo not drawn) [Example 23, 3-[7-(7-Chloro-6-fluoro-quinolin-2-ylmethoxy)-10,11-dihydro-5H-benzo[4,5]cyclohepta[1,2-b]pyridin-5-ylsulfanyl]-propionic Acid], the ED50 in assay [1] (setting [2]) is 0.002 mg/kg. This molecule also displayed an IC50 at CysLT1 of 0.34 nM. In assay [1], `O=C(O)CCSC1c2cc(OCc3ccc4cc(F)c(F)cc4n3)ccc2OCc2ncccc21` (single isomer, unassigned; (-)) [Example 35, (−)-3-[7-(6,7-Difluoro-quinolin-2-ylmethoxy)-5,11-dihydro-10-oxa-1-aza-dibenzo[a,d]cyclohepten-5-ylsulfanyl]-propionic Acid] displayed an ED50 of 0.009 mg/kg. The molecule also gave an IC50 at CysLT1 of 0.35 nM. Consider `O=C(O)CCSC1c2cc(OCc3ccc4cc(F)c(F)cc4n3)ccc2OCc2ncccc21` (single isomer, unassigned; (+)) [Example 34, (+)-3-[7-(6,7-Difluoro-quinolin-2-ylmethoxy)-5,11-dihydro-10-oxa-1-aza-dibenzo[a,d]cyclohepten-5-ylsulfanyl]-propionic Acid], for which the ED50 in assay [1] (setting [2]) is 0.018 mg/kg. This molecule yielded an IC50 at CysLT1 of 1.2 nM.
